# Experimental data reported in patent publication US11661431B2, “Thienopyrrole compounds” (Gilead Sciences, Inc., priority 2021, dated 2023).
# Legend:
# [1] = biological target: TLR7 (Homo sapiens (Human), UniProt Q9NYK1); assay: TLR7 human peripheral blood mononuclear cell (PBMC) cell-based assay (GS-986 as agonist; IL-6 and IFNα readout); settings: human PBMCs, TLR7 agonist GS-986 at 400 nM, 6 hours, antagonist potency; read-out: TLR-7 EC50
# How it was run: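 Human PBMCs (100,000 cells/well) preincubated 1 h at 37 °C with antagonist in 10-point dose response, then stimulated with TLR7 agonist for a further 6 h at 37 °C, 5% CO2. Supernatant IL-6 and IFNα measured by electrochemiluminescence immunoassay.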
# [2] = biological target: TLR8 (Homo sapiens (Human), UniProt Q9NR97); assay: TLR8 human peripheral blood mononuclear cell (PBMC) cell-based assay (Compound A as agonist; TNFα and IL12p40 readout); settings: human PBMCs, TLR8 agonist Compound A at 800 nM, 6 hours, antagonist potency; read-out: TLR-8 EC50
# Sequence of TLR8 (Q9NR97 27-1041): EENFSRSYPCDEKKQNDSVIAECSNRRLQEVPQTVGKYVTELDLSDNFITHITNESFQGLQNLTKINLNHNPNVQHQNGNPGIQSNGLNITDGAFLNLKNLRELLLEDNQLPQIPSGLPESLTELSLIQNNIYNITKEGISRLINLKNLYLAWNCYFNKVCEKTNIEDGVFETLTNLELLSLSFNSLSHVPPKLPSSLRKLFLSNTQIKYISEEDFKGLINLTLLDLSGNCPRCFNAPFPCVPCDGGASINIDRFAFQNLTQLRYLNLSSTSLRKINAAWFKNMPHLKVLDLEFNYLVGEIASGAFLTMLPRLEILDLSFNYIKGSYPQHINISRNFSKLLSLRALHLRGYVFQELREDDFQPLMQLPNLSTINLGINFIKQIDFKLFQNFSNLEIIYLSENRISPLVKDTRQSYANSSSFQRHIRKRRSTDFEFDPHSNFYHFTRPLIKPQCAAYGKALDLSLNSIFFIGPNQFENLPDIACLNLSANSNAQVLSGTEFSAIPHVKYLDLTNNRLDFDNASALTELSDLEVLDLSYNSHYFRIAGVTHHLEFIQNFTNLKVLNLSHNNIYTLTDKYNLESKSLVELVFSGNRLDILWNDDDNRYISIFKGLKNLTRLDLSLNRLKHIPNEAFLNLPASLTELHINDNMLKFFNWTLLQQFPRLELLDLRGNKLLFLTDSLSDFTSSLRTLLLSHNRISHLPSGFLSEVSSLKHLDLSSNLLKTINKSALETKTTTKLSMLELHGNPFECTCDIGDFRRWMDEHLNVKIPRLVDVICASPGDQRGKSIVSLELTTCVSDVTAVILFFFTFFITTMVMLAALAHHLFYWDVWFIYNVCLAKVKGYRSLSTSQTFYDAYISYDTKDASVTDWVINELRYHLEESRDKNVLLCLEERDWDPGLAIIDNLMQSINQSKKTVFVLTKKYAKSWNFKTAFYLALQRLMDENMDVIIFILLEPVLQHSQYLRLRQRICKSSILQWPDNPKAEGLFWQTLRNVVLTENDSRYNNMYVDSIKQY
# Sequence of TLR7 (Q9NYK1 27-1049): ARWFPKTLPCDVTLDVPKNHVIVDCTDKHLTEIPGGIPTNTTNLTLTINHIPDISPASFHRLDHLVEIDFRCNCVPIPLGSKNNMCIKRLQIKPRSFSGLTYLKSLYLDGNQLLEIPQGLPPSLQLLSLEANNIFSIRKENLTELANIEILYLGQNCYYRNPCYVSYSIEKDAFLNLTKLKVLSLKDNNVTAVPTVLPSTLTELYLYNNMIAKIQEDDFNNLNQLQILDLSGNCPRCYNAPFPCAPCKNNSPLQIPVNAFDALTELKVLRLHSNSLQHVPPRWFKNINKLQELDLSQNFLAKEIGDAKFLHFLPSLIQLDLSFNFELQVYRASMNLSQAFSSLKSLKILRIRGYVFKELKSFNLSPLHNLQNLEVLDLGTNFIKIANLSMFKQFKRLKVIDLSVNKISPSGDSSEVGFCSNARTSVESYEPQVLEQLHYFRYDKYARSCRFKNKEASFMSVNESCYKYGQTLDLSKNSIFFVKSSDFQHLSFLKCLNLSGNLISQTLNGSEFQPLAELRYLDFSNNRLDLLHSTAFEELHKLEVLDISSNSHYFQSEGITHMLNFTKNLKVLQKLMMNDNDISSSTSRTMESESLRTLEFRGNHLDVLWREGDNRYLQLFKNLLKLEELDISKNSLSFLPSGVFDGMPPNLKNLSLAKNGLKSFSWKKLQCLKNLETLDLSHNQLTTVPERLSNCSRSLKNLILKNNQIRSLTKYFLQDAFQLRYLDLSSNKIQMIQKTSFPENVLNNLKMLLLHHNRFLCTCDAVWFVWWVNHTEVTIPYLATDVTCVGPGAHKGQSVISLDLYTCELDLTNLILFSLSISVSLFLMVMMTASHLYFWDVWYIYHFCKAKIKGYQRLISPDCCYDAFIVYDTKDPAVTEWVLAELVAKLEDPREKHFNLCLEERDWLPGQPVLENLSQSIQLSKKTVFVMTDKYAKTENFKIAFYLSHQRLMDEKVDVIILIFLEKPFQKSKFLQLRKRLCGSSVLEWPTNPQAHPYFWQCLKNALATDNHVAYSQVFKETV
SMILES,EC50 [1] [nM],EC50 [2] [nM]
"Cc1c([C@H]2C[C@H]3CC[C@@H]2CN3CC(N)=O)sc2[nH]c(-c3cc(C)c4ncnn4c3)c(C(C)C)c12 (single isomer, unassigned) [Example 190]",3.52,13.8
"Cc1c(-c2[nH]c3sc([C@H]4C[C@@H]5CC[C@H]4CN5CC(N)=O)c(C)c3c2C(C)C)cn2ncnc2c1C (single isomer, unassigned) [Example 96]",0.83,6.75
Cc1c(C2CC3COCC(C2)N3CCO)sc2[nH]c(-c3cc(C)c4ncnn4c3)c(C(C)C)c12 (stereo not shown) [Example 33],7.19,45.9
Cc1c(C2CCN(C(=O)[C@@H]3COCCN3C)CC2)sc2[nH]c(-c3cc(C)c4ncnn4c3)c(C(C)C)c12 [Example 49],1.12,27.9
Cc1c(C2CCN(CC(N)=O)CC2)sc2[nH]c(-c3ccc(C#N)c4ncccc34)c(C(C)C)c12 [Example 230],0.81,14
Cc1cc2ncnn2cc1-c1[nH]c2sc(C3CCN(CC(N)=O)CC3)c(C)c2c1C(C)C [Example 235],10.1,48.8
Cc1c(C2CC2C(=O)N2CCNCC2)sc2[nH]c(-c3cc(C)c4ncnn4c3)c(C(C)C)c12 (stereo not shown) [Example 192],274,> 1000
"Cc1c(-c2[nH]c3sc(C4COC5(CCN(CC(N)=O)CC5)C4)c(C)c3c2C(C)C)cn2ncnc2c1C (single isomer, unassigned) [Example 87, 2-(3-(5-(7,8-dimethyl-[1,2,4]triazolo[1,5-a]pyridin-6-yl)-4-isopropyl-3-methyl-6H-thieno[2,3-b]pyrrol-2-yl)-1-oxa-8-azaspiro[4.5]decan-8-yl)acetamide]",0.87,20.9
Cc1c(-c2[nH]c3sc([C@@H]4C[C@@H]5C[C@H]4CN5C4(CC#N)CN(S(C)(=O)=O)C4)c(C)c3c2C(C)C)cn2ncnc2c1C [Example 153],0.77,23.2
Cc1c(C2C3CC2CN(CC(N)=O)C3)sc2[nH]c(-c3cc(C)c4ncnn4c3)c(C(C)C)c12 (stereo not shown) [Example 65],28.1,33.1
Cc1cc(-c2[nH]c3sc(C4CCN(CC(N)=O)CC4)c(C)c3c2C(C)C)cn(C)c1=O [Example 234],4.25,10.6
"Cc1c(-c2[nH]c3sc(C4CCC5(CC4)CNCCO5)c(C)c3c2C(C)C)cn2ncnc2c1C (single isomer, unassigned) [Example 293, 9-(5-(7,8-dimethyl-[1,2,4]triazolo[1,5-a]pyridin-6-yl)-4 isopropyl-3-methyl-6H-thieno[2,3-b]pyrrol-2-yl)-1-oxa-4-azaspiro[5.5]undecane]",1.67,20.5
"Cc1c(-c2[nH]c3sc(C4CC(c5nnc([C@H]6COCCN6)o5)C4)c(C)c3c2C(C)C)cn2ncnc2c1C (single isomer, unassigned) [Example 240]",4.86,48.4

# These reach a lower EC50 [1]. Values come first.
EC50 [1] [nM],EC50 [2] [nM],SMILES
0.14,9.43,"Cc1c(-c2[nH]c3sc(C4CC(n5cc(C6COCCN6)nn5)C4)c(C)c3c2C(C)C)cn2ncnc2c1C (single isomer, unassigned) [Example 244, 3-(1-(3-(5-(7,8-dimethyl-[1,2,4]triazolo[1,5-a]pyridin-6-yl)-4-isopropyl-3-methyl-6H-thieno[2,3-b]pyrrol-2-yl)cyclobutyl)-1H-1,2,3-triazol-4-yl)morpholine]"
0.1,13,Cc1c(C2CCN(C(=O)[C@H]3COCCN3)CC2)sc2[nH]c(-c3cc(C)c4ncnn4c3)c(C(C)C)c12 [Example 35]
0.6,230,Cc1c(C23CCN(CC(N)=O)CC2C3(F)F)sc2[nH]c(-c3cc(C)c4ncnn4c3)c(C(C)C)c12 (stereo not shown) [Example 205]
0.24,15.2,Cc1c(C2CCN(C(=O)[C@@H]3C[C@H](F)CN3)CC2)sc2[nH]c(-c3cc(C)c4ncnn4c3)c(C(C)C)c12 [Example 118]
0.44,0.85,Cc1c(-c2[nH]c3sc([C@@H]4C[C@@H]5C[C@H]4CN5Cc4ccc(Br)cc4)c(C)c3c2C(C)C)cn2ncnc2c1C [Example 154]
0.71,2.77,"Cc1c(-c2[nH]c3sc([C@@H]4C[C@@H]5C[C@H]4CN5C4CCS(=O)(=O)C4)c(C)c3c2C(C)C)cn2ncnc2c1C (stereo partly drawn) [Example 294, 3-[(1S,4R)-5-[5-(7,8-dimethyl-[1,2,4]triazolo[1,5-a]pyridin-6-yl)-4-isopropyl-3-methyl-6H-thieno[2,3-b]pyrrol-2-yl]-2-azabicyclo[2.2.1]heptan-2-yl]thiolane 1,1-dioxide]"
0.34,3.59,Cc1cc(-c2[nH]c3sc(C4CCNCC4)c(C)c3c2C(C)C)cn(C)c1=O [Example 250]
0.56,16.1,Cc1c(-c2ccc(N3CCNCC3)cc2)sc2[nH]c(-c3cc(C)c4ncnn4c3)c(C(C)C)c12 [Example 23]
0.47,0.15,Cc1c(-c2[nH]c3sc([C@@H]4C[C@@H]5C[C@H]4CN5CC(=O)NCCO)c(C)c3c2C(C)C)cn2ncnc2c1C [Example 267]
0.19,0.49,Cc1c(C2CC3(CCCN3)C2)sc2[nH]c(-c3cc(C)c4ncnn4c3)c(C(C)C)c12 (stereo not shown) [Example 138]
0.2,2.87,Cc1c(C23CNCC2C3)sc2[nH]c(-c3cc(C)c4ncnn4c3)c(C(C)C)c12 (stereo not shown) [Example 193]
< 0.05,1.16,"Cc1c(-c2[nH]c3sc([C@@H]4C[C@@H]5C[C@H]4CN5C(CO)CO)c(C)c3c2C(C)C)cn2ncnc2c1C [Example 308, 2-((1S,4R,5R)-5-(5-(7,8-dimethyl-[1,2,4]triazolo[1,5-a]pyridin-6-yl)-4 isopropyl-3-methyl-6H-thieno[2,3-b]pyrrol-2-yl)-2-azabicyclo[2.2.1]heptan-2-yl)propane-1,3-diol]"
0.54,0.29,Cc1c(-c2[nH]c3sc([C@@H]4C[C@@H]5C[C@H]4CN5CC(N)=O)c(C)c3c2C(C)C)cn2nc(Cl)nc2c1C [Example 139]
0.09,2.89,"Cc1c(-c2[nH]c3sc(C45CCNCC4C5)c(C)c3c2C(C)C)cn2ncnc2c1C (stereo not shown) [Example 77, 2-(3-azabicyclo[4.1.0]heptan-6-yl)-5-(7,8-dimethyl-[1,2,4]triazolo[1,5-a]pyridin-6-yl)-4-isopropyl-3-methyl-6H-thieno[2,3-b]pyrrole]"
0.24,14.1,Cc1c(C2CCN(C(=O)[C@@H]3CNCCO3)CC2)sc2[nH]c(-c3cc(C)c4ncnn4c3)c(C(C)C)c12 [Example 47]
0.43,19.3,Cc1c(C2CCN(C(=O)C3(C)COCCN3)CC2)sc2[nH]c(-c3cc(C)c4ncnn4c3)c(C(C)C)c12 (stereo not shown) [Example 51]
0.19,32.2,CCc1c(C2CCN(C(=O)[C@@H]3COCCN3)CC2)sc2[nH]c(-c3cc(C)c4ncnn4c3)c(C(C)C)c12 [Example 207]
0.07,0.5,Cc1c(-c2[nH]c3sc(C4C[C@@H]5CN[C@H]4C5)c(C)c3c2C(C)C)cn2ncnc2c1C (stereo partly shown) [Example 112]
0.1,6.4,Cc1c(-c2[nH]c3sc(C4CCC(N5CC[C@H](F)C5)CC4)c(C)c3c2C(C)C)cn2ncnc2c1C (stereo partly shown) [Example 302]
